# Test results: ChEMBL document CHEMBL3751732 (Bioorg Med Chem Lett, 2016)
# The source made the active and inactive calls. No cut-off for these calls is given here.
# How the values were obtained:
# Histamine H1 receptor = Histamine H1 receptor (Homo sapiens, UniProt P35367); assay: Displacement of [3H]mepyramine from human histamine 1 receptor expressed in Sf9 cell membranes by liquid scintillation counting
# Histamine H4 receptor [1] = molecular target: T1, Histamine H4 receptor (Homo sapiens, UniProt Q9H3N8); assay: Displacement of [3H]histamine from human histamine 4 receptor expressed in Sf9 cell membranes by liquid scintillation counting
# Histamine H2 receptor = Histamine H2 receptor (Homo sapiens, UniProt P25021); assay: Displacement of [3H]UR-DE257 from human histamine 2 receptor expressed in Sf9 cell membranes by liquid scintillation counting
# Sequence of Histamine H2 receptor (P25021 whole entry): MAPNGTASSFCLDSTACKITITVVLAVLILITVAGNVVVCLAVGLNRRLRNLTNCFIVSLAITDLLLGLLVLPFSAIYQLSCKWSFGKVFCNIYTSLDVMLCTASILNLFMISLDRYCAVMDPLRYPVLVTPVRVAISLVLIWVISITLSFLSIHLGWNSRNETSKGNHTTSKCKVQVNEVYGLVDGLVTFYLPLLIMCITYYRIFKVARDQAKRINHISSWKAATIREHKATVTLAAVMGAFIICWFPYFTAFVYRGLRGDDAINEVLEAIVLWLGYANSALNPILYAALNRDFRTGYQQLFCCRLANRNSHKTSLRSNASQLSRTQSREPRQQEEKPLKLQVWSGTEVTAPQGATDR
# Histamine H3 receptor = Histamine H3 receptor (Homo sapiens, UniProt Q9Y5N1); assay: Displacement of [3H]Nalpha-methylhistamine from human histamine 3 receptor expressed in Sf9 cell membranes by liquid scintillation counting
# Sequence of Histamine H3 receptor (Q9Y5N1 whole entry): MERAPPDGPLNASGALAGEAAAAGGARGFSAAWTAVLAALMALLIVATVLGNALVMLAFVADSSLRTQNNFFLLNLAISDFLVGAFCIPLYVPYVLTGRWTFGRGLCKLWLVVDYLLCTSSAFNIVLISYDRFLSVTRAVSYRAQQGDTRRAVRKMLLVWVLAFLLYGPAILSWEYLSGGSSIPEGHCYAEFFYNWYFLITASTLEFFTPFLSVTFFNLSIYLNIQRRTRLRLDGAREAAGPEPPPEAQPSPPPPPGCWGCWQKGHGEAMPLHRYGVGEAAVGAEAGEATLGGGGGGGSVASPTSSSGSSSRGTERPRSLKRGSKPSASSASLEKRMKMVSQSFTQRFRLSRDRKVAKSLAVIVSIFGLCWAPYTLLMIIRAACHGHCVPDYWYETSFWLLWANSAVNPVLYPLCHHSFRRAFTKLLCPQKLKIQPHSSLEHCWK
# Histamine H4 receptor [2] = molecular target: T1, Histamine H4 receptor; assay: Antagonist activity at human histamine 4 receptor expressed in Sf9 cell membranes co-expressing Galphai2 and Gbeta1gamma2 assessed as [35S]GTPgammaS binding by scintillation counting; format: functional
# Histamine H4 receptor [3] = molecular target: T1, Histamine H4 receptor; assay: Antagonist activity at human histamine 4 receptor expressed in Sf9 cell membranes co-expressing Galphai2 and Gbeta1gamma2 assessed as [35S]GTPgammaS binding by scintillation counting relative to control histamine; format: functional
# Sequence of Histamine H1 receptor (P35367 whole entry): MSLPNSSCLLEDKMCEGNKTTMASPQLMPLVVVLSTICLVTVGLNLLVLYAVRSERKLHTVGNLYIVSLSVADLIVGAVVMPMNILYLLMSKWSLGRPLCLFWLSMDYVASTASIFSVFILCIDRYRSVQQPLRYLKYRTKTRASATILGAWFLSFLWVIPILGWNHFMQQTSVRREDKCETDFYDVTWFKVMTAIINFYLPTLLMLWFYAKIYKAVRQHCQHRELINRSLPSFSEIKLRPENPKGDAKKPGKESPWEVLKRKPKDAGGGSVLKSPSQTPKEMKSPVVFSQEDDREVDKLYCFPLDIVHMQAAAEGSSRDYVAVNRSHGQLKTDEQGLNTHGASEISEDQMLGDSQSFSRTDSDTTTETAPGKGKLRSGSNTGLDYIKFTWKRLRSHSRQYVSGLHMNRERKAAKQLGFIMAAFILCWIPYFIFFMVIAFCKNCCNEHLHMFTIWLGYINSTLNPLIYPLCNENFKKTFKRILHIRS
Structure (SMILES),Ki (Histamine H1 receptor) [µM],Ki (Histamine H4 receptor [1]) [µM],other results
CN1CCN(c2cc(-c3ccccc3)nc(NCc3ccccc3)n2)CC1,1.12,0.955,Ki (Histamine H2 receptor): 10.2 µM; Ki (Histamine H3 receptor): 2.51 µM; EC50 (Histamine H4 receptor [2]): 0.912 µM; Ratio (Histamine H4 receptor [3]): -1.27
COc1ccc(CNc2cc(-c3ccccc3)nc(N(C)C)n2)cc1,–,–,pKi (Histamine H1 receptor): inactive; pKi (Histamine H4 receptor [1]): inactive
Cc1ccc(CNc2nc3c(c(N4CCN(C)CC4)n2)CCc2ccccc2-3)cc1,3.39,20,–
CN1CCN(c2nc(NCc3ccccc3)nc3c2-c2ccccc2CC3)CC1,1.91,26.3,–
CN1CCN(c2nc(NCc3cccs3)c3cc(Cl)ccc3n2)CC1,0.55,–,–
CN1CCN(c2nc(NCCc3ccccc3)cc(-c3ccccc3)n2)CC1,1.95,36.3,–
CN1CCN(c2nc(NCCc3ccccc3)nc3c2-c2ccccc2CC3)CC1,1.86,6.76,–
COc1ccc(CNc2nc3c(c(N4CCN(C)CC4)n2)-c2ccccc2CC3)cc1,1.07,13.8,–
CN1CCN(c2nc(NCc3ccc(F)cc3)nc3c2CCc2ccccc2-3)CC1,1.95,11,–
CN1CCN(c2nc3c(c(N4CCN(C)CC4)n2)-c2ccccc2CC3)CC1,1.17,7.76,–
CN1CCN(c2nc(NCc3ccccc3)nc3c2CCc2ccccc2-3)CC1,2.09,1.58,Ki (Histamine H2 receptor): 6.92 µM; Ki (Histamine H3 receptor): 6.03 µM; EC50 (Histamine H4 receptor [2]): 0.933 µM; Ratio (Histamine H4 receptor [3]): -1.01
COc1ccc(CNc2cc(-c3ccccc3)nc(N3CCN(C)CC3)n2)cc1,4.17,72.4,–
CN(C)c1nc(NCCc2ccccc2)cc(-c2ccccc2)n1,–,–,pKi (Histamine H1 receptor): inactive; pKi (Histamine H4 receptor [1]): inactive
CN1CCN(c2nc(NCc3ccccc3)c3c(n2)-c2ccccc2CC3)CC1,0.891,14.5,–
CN1CCN(c2nc(NCCc3ccccc3)c3c(n2)-c2ccccc2CC3)CC1,8.13,15.1,–

# Continued, in another order:
Ki (Histamine H1 receptor) [µM],Ki (Histamine H4 receptor [1]) [µM],Structure (SMILES),other results
3.31,9.77,CN1CCN(c2cc(-c3ccccc3)nc(NCCc3ccccc3)n2)CC1,–
6.31,19.5,COc1ccc(CNc2nc(N3CCN(C)CC3)nc3c2CCc2ccccc2-3)cc1-c1ccc(Cl)cc1,–
9.33,9.12,CN1CCN(c2nc(NCCc3ccccc3)nc3c2CCc2ccccc2-3)CC1,–
2.51,31.6,CN1CCN(c2nc(NCc3ccccc3)cc(-c3ccccc3)n2)CC1,–
9.12,0.186,CN1CCN(c2nc(N)nc3c2CCc2ccccc2-3)CC1,Ki (Histamine H2 receptor): 31.6 µM; Ki (Histamine H3 receptor): 9.77 µM; EC50 (Histamine H4 receptor [2]): 0.295 µM; Ratio (Histamine H4 receptor [3]): -0.47
0.00832,–,CN1CCN(C2=Nc3ccc(Cl)cc3Oc3ccccc32)CC1,–
5.25,1.74,COc1ccc(CNc2nc(-c3ccccc3)cc(N3CCN(C)CC3)n2)cc1,–
5.75,4.27,COc1ccc(CNc2nc3c(c(N4CCN(C)CC4)n2)CCc2ccccc2-3)cc1,–
